Earlier results as cited in patent US10927398B2, “Compositions for CYP450 phenotyping using saliva samples” (Concordia University, Inc., priority 2015, dated 2021).
Read-outs that look alike come from different tables or passages of the source.

Tests used:
[1] = cited from earlier work
[2] = system: plasma protein; conditions: cited from earlier work
[3] = Table of Exemplary Drugs, CYP2D6
[4] = Table of Exemplary Drugs, CYP3A4
[5] = Table of Exemplary Drugs, CYP2C19
[6] = Table of Exemplary Drugs, CYP2C9

Compound	HALF-LIFE [1, 4] [h]	PLASMA PROTEIN BINDING [2, 4]	further results
O=C1CCc2ccc(OCCCCN3CCN(c4cccc(Cl)c4Cl)CC3)cc2N1 [Aripiprazole]	–	–	HALF-LIFE [1, 3]: 75 h; PLASMA PROTEIN BINDING [2, 3]: >99%
C=C(c1ccc(C(=O)O)cc1)c1cc2c(cc1C)C(C)(C)CCC2(C)C [Bexarotene (Targretin), Bexarotene]	7	99%	–
CC(NC(C)(C)C)C(=O)c1cccc(Cl)c1 (centres unmarked) [Bupropion]	19 to 21.3	84%	HALF-LIFE [1, 5]: 19 to 21.3 h; PLASMA PROTEIN BINDING [2, 5]: 84%
NC(=O)N1c2ccccc2C=Cc2ccccc21 [Carbamazepine (eg. Tegretol), Carbamazepine]	12 to 17	76%	–
CCCC(C)(COC(N)=O)COC(=O)NC(C)C (centres unmarked) [Carisoprodol]	–	–	PLASMA PROTEIN BINDING ([2]; plasma): 60%
Cc1ccc(-c2cc(C(F)(F)F)nn2-c2ccc(S(N)(=O)=O)cc2)cc1 [Celecoxib]	–	–	HALF-LIFE [1, 6]: 11 h; PLASMA PROTEIN BINDING [2, 6]: 97%
CC1OC2(CS1)CN1CCC2CC1 (centres unmarked) [Cevimeline (Evoxac), Cevimeline]	4 to 6	<20%	–
CN(C)CCC(c1ccc(Cl)cc1)c1ccccn1 (centres unmarked) [Chlorphenamine]	–	–	PLASMA PROTEIN BINDING [2, 3]: 72%
O=C1CN=C(c2ccccc2Cl)c2cc([N+](=O)[O-])ccc2N1 [Clonazepam (Klonopin), Clonazepam]	–	85%	HALF-LIFE ([1]; in vivo): 30 to 40 h
O=P1(N(CCCl)CCCl)NCCCO1 (centres unmarked) [Cyclophosphamide]	–	–	HALF-LIFE ([1]; in vivo): 3 to 12 h; PLASMA PROTEIN BINDING ([2]; plasma): >60%
Cc1nc(Nc2ncc(C(=O)Nc3c(C)cccc3Cl)s2)cc(N2CCN(CCO)CC2)n1 [Dasatinib (Sprycel), Dasatinib]	3 to 5	96%	–
C[C@@H]1C[C@H]2[C@@H]3CCC4=CC(=O)C=C[C@]4(C)[C@@]3(F)[C@@H](O)C[C@]2(C)[C@@]1(O)C(=O)CO [Dexmethasone (Decadron), Dexmethasone]	–	–	PLASMA PROTEIN BINDING ([2]; plasma): 77%
CN[C@@H](C)Cc1ccccc1 [Dextromethamphetamine]	–	–	HALF-LIFE [1, 3]: 12 h
CC(=O)O[C@@]12CO[C@@H]1C[C@H](O)[C@@]1(C)C(=O)[C@H](O)C3=C(C)[C@@H](OC(=O)[C@H](O)[C@@H](NC(=O)OC(C)(C)C)c4ccccc4)C[C@@](O)([C@@H](OC(=O)c4ccccc4)[C@H]21)C3(C)C [Docetaxel (Taxotere), Docetaxel]	11.1	94-97% ^	–
O=C(CCCN1CC=C(n2c(=O)[nH]c3ccccc32)CC1)c1ccc(F)cc1 [Droperidol]	2	–	–
CN1CCN(C(=O)O[C@H]2c3nccnc3C(=O)N2c2ccc(Cl)cn2)CC1 [Eszopiclone (Lunesta), Eszopiclone]	–	52-59% ^	–
COCCCC/C(=N\OCCN)c1ccc(C(F)(F)F)cc1 [Fluvoxamine]	–	–	HALF-LIFE ([1]; Table of Exemplary Drugs, CYP1A2): ~14 to 16 h; HALF-LIFE [1, 3]: 15.6 h
CC(C)CN(C[C@@H](OP(=O)(O)O)[C@H](Cc1ccccc1)NC(=O)O[C@H]1CCOC1)S(=O)(=O)c1ccc(N)cc1 [Fosamprenavir (Lexiva), Fosamprenavir]	7.7	90%	–
COc1ccc(Cl)cc1C(=O)NCCc1ccc(S(=O)(=O)NC(=O)NC2CCCCC2)cc1 [Glibenclamide]	–	–	PLASMA PROTEIN BINDING [2, 6]: 99%

Compound	HALF-LIFE [1, 4] [h]	PLASMA PROTEIN BINDING [2, 4]	further results
CN1C2CCCC1CC(NC(=O)c1nn(C)c3ccccc13)C2 (centres unmarked) [Granisetron (Kytril), Granisetron]	3 to 24	65%	–
CCCCN(CCCC)CCC(O)c1cc2c(Cl)cc(Cl)cc2c2cc(C(F)(F)F)ccc12 (centres unmarked) [Halofantrine (Halfan), Halofantrine]	140 to 240	60-70% ^	–
CN1C(=O)NC(=O)C(C)(C2=CCCCC2)C1=O (centres unmarked) [Hexobarbital]	–	–	PLASMA PROTEIN BINDING [2, 5]: 25%
CCC(C)n1ncn(-c2ccc(N3CCN(c4ccc(OCC5COC(Cn6cncn6)(c6ccc(Cl)cc6Cl)O5)cc4)CC3)cc2)c1=O (centres unmarked) [Itraconazole (Sporanox), Itraconazole]	35 to 64	–	–
C/C(=C\c1csc(C)n1)[C@@H]1C[C@@H]2O[C@]2(C)CCC[C@H](C)[C@H](O)[C@@H](C)C(=O)C(C)(C)[C@@H](O)CC(=O)N1 [Ixabepilone (Ixempra), Ixabepilone]	52	67-77% ^	–
CS(=O)(=O)CCNCc1ccc(-c2ccc3ncnc(Nc4ccc(OCc5cccc(F)c5)c(Cl)c4)c3c2)o1 [Lapatinib (Tykerb), Lapatinib]	24	>99%	–
CC[C@H](O)C(C[C@H](C)N(C)C)(c1ccccc1)c1ccccc1 [Levomethadyl (Orlaam), Levomethadyl]	–	80%	HALF-LIFE ([1]; in vivo): 35 to 60 h
C=C(C)[C@H]1CC=C(C)CC1 [Limonene]	–	–	HALF-LIFE [1, 5]: 12 to 24 h
Cc1c(OCC(F)(F)F)ccnc1C[S+]([O-])c1nc2ccccc2[nH]1 (centres unmarked) [Llansoprazole]	–	–	HALF-LIFE [1, 5]: 0.9 to 1.5 h; PLASMA PROTEIN BINDING [2, 5]: 97-99% ^
Cc1cccc(C)c1OCC(=O)N[C@@H](Cc1ccccc1)[C@@H](O)C[C@H](Cc1ccccc1)NC(=O)[C@H](C(C)C)N1CCCNC1=O [Lopinavir (Kaletra), Lopinavir]	5 to 6	98-99% ^	–
CC[C@H](C)C(=O)O[C@H]1C[C@@H](C)C=C2C=C[C@H](C)[C@H](CC[C@@H]3C[C@@H](O)CC(=O)O3)[C@H]21 [Lovastatin (Mevacor), Lovastatin]	2 to 5	>95%	–
C[C@H]1C[C@@H]2[C@H]([C@@H](O)C[C@@]3(C)[C@H]2CC[C@]3(O)C(=O)CO)[C@@]2(C)C=CC(=O)C=C12 [Methylprednisolone]	2 to 3	78%	–
CCN(CC)CCNC(=O)c1cc(Cl)c(N)cc1OC [Metoclopramide]	–	–	HALF-LIFE [1, 3]: 5 to 6 h; PLASMA PROTEIN BINDING [2, 3]: 30%
Cc1cc(-c2ccccc2)nnc1NCCN1CCOCC1 [Minaprine]	–	–	HALF-LIFE [1, 3]: 2 to 2.5 h
NC(=O)C[S+]([O-])C(c1ccccc1)c1ccccc1 (centres unmarked) [Modafinil (Provigil), Modafinil]	7.5 to 15	60%	–
Cc1c(O)cccc1C(=O)N[C@@H](CSc1ccccc1)[C@H](O)CN1C[C@H]2CCCC[C@H]2C[C@H]1C(=O)NC(C)(C)C [Nelfinavir]	–	–	HALF-LIFE [1, 5]: 3.5 to 5 h; PLASMA PROTEIN BINDING [2, 5]: 98%
CC1(C)NC(=O)N(c2ccc([N+](=O)[O-])c(C(F)(F)F)c2)C1=O [Nilutamide]	–	–	HALF-LIFE [1, 5]: 38 to 59.1 h; PLASMA PROTEIN BINDING [2, 5]: 80-84% ^
CN(C)C[C@H]1CCCC[C@]1(O)c1cccc(O)c1 [O-desmethyltramadol]	–	–	HALF-LIFE [1, 3]: 9 h
CCN(CC)CC#CCOC(=O)C(O)(c1ccccc1)C1CCCCC1 (centres unmarked) [Oxybutynin (Ditropan), Oxybutynin]	7 to 30	91-93% ^	–

Compound	HALF-LIFE [1, 4] [h]	PLASMA PROTEIN BINDING [2, 4]	further results
Fc1ccc([C@@H]2CCNC[C@H]2COc2ccc3c(c2)OCO3)cc1 [Paroxetine]	–	–	HALF-LIFE [1, 3]: 15 to 21 h; PLASMA PROTEIN BINDING [2, 3]: 93-95% ^
C1CCC(C(CC2CCCCN2)C2CCCCC2)CC1 (centres unmarked) [Perhexiline]	–	–	HALF-LIFE [1, 3]: 12 to 18 h
O=c1[nH]c2ccccc2n1C1CCN(CCCC(c2ccc(F)cc2)c2ccc(F)cc2)CC1 [Pimozide (Orap), Pimozide]	55	–	–
CN1C(C(=O)Nc2ccccn2)=C(O)c2ccccc2S1(=O)=O [Piroxicam]	–	–	HALF-LIFE [1, 6]: 50 h; PLASMA PROTEIN BINDING [2, 6]: 99%
C[C@]12C=CC(=O)C=C1CC[C@@H]1[C@@H]2[C@@H](O)C[C@@]2(C)[C@H]1CC[C@]2(O)C(=O)CO [Prednisolone]	2 to 4	70-90% ^	–
[H]/N=C(\N/C(=N/[H])Nc1ccc(Cl)cc1)NC(C)C [Proguanil]	–	–	HALF-LIFE [1, 5]: 12 to 18 h; PLASMA PROTEIN BINDING [2, 5]: 75%
OCCOCCN1CCN(C2=Nc3ccccc3Sc3ccccc32)CC1 [Quetiapine (Seroquel), Quetiapine]	6 to 7	83%	–
CCN(CC)CCCC(C)Nc1c2ccc(Cl)cc2nc2ccc(OC)cc12 (centres unmarked) [Quinacrine]	120	80-90% ^	–
Cc1nc2n(c(=O)c1CCN1CCC(c3noc4cc(F)ccc34)CC1)CCCC2 [Risperidone]	–	–	HALF-LIFE [1, 3]: 3 to 20 h
CC(C)c1nc(CN(C)C(=O)N[C@H](C(=O)N[C@@H](Cc2ccccc2)C[C@H](O)[C@H](Cc2ccccc2)NC(=O)OCc2cncs2)C(C)C)cs1 [Ritonavir (Norvir), Ritonavir]	3 to 5	–	–
CN(CCOc1ccc(CC2SC(=O)NC2=O)cc1)c1ccccn1 (centres unmarked) [Rosiglitazone]	–	–	HALF-LIFE [1, 6]: 3 to 4 h
CC(C)(C)NC(=O)[C@@H]1C[C@@H]2CCCC[C@@H]2CN1C[C@@H](O)[C@H](Cc1ccccc1)NC(=O)[C@H](CC(N)=O)NC(=O)c1ccc2ccccc2n1 [Saquinavir (Invirase), Saquinavir]	13	98%	–
CCCc1nn(C)c2c(=O)[nH]c(-c3cc(S(=O)(=O)N4CCN(C)CC4)ccc3OCC)nc12 [Sildenafil]	–	96%	HALF-LIFE [1, 6]: 4 h; PLASMA PROTEIN BINDING [2, 6]: 96%
CCN(CC)CCNC(=O)c1c(C)[nH]c(/C=C2\C(=O)Nc3ccc(F)cc32)c1C [Sunitinib (Sutent), Sunitinib]	40 to 60	95%	–
CSc1ccc2c(c1)N(CCC1CCCCN1C)c1ccccc1S2 (centres unmarked) [Thioridazine]	–	–	HALF-LIFE [1, 3]: 21 to 24 h
CCCCNC(=O)NS(=O)(=O)c1ccc(C)cc1 [Tolbutamide]	–	–	HALF-LIFE [1, 6]: 4.5 to 6.5 h
CC[C@]1(O)C[C@H]2CN(CCc3c([nH]c4ccccc34)[C@@](C(=O)OC)(c3cc4c(cc3OC)N(C=O)[C@H]3[C@@](O)(C(=O)OC)[C@H](OC(C)=O)[C@]5(CC)C=CCN6CC[C@]43[C@@H]65)C2)C1 [Vincristine (Oncovin), Vincristine]	85	–	–
Cc1ccc(-c2nc3ccc(C)cn3c2CC(=O)N(C)C)cc1 [Zolpidem (Ambien), Zolpidem]	–	–	HALF-LIFE ([1]; in vivo): 2.5 to 2.8 h
NS(=O)(=O)Cc1noc2ccccc12 [Zonisamide (Zonegran), Zonisamide]	–	40-60% ^	–
